How the values were obtained:
Conditions in all cases: incubation time: 72 h
DU-4475 [1] = experiment: normalised viability (% of control), CellTiter-Blue; higher = more viable cells (about 100 = DMSO control)
Procedure, shortened: (§1)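 Vehicle (100) and a positive kill control (0) anchored the normalisation of each plate, and Z'-factor was used for quality control. Breast cancer cell lines in 20 µl suspension were incubated 72 h over compound in 5 µl medium in 384-well plates, followed by CellTiter-Blue at 560/590 nm. The value is normalised viability at a single listed concentration of the series.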

HCC1937 [2] = experiment: as above
Procedure, shortened: as §1

MDA-MB-231 [3] = experiment: as above
Procedure, shortened: as §1

MDA-MB-468 [4] = experiment: as above
Procedure, shortened: as §1

MFM-223 = experiment: as above
Procedure, shortened: as §1

CAL-51 [5] = experiment: as above
Procedure, shortened: as §1

HDQ-P1 = experiment: as above
Procedure, shortened: as §1

CAL-120 = experiment: as above
Procedure, shortened: as §1

MDA-MB-436 = experiment: as above
Procedure, shortened: as §1

HCC1599 [6] = experiment: as above
Procedure, shortened: as §1

Hs578T [7] = experiment: as above
Procedure, shortened: as §1

CAL-148 [8] = experiment: as above
Procedure, shortened: as §1

SK-BR-3 = experiment: as above
Procedure, shortened: as §1

MDA-MB-453 = experiment: as above
Procedure, shortened: as §1

BT-549 [9] = experiment: as above
Procedure, shortened: as §1

HCC1143 [10] = experiment: as above
Procedure, shortened: as §1

BT-474 = experiment: as above
Procedure, shortened: as §1

CAL-85-1 = experiment: as above
Procedure, shortened: as §1

HCC1937 [11] = experiment: drug sensitivity score (DSS), CellTox Green (DSS (AUC-based score)); higher = stronger drug effect (viability inhibition or cytotoxicity); extreme values may be limits of the assay
Procedure, shortened: (§2)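 Breast cancer cells were seeded into 384-well plates containing compound at 5 concentrations in 10-fold steps over a compound-specific 10,000-fold range and incubated 72 h. After CellTox Green and CellTiter-Glo readings, each plate was normalised to 0.1 % DMSO and a positive kill control. The drug sensitivity score rests on the area under the fitted dose-response curve.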

Hs578T [12] = experiment: as above
Procedure, shortened: as §2

DU-4475 [13] = experiment: normalised viability (% of control), CellTiter-Blue; higher = more viable cells (about 100 = DMSO control); remark: listed apart in the source
Procedure, shortened: as §1

MDA-MB-231 [14] = experiment: as above; remark: listed apart in the source
Procedure, shortened: as §1

MDA-MB-468 [15] = experiment: as above; remark: listed apart in the source
Procedure, shortened: as §1

CAL-51 [16] = experiment: as above; remark: listed apart in the source
Procedure, shortened: as §1

HCC1599 [17] = experiment: as above; remark: listed apart in the source
Procedure, shortened: as §1

Hs578T [18] = experiment: as above; remark: listed apart in the source
Procedure, shortened: as §1

CAL-148 [19] = experiment: as above; remark: listed apart in the source
Procedure, shortened: as §1

BT-549 [20] = experiment: as above; remark: listed apart in the source
Procedure, shortened: as §1

HCC1143 [21] = experiment: as above; remark: listed apart in the source
Procedure, shortened: as §1

COc1ccc(C2=N[C@@H](c3ccc(Cl)cc3)[C@@H](c3ccc(Cl)cc3)N2C(=O)N2CCNC(=O)C2)c(OC(C)C)c1 [Nutlin-3]
Conditions	normalised viability [%]
BT-474, 100 nM	109
BT-549 [9], 100 nM	105
BT-549 [20], 10 nM	91.3
BT-549 [20], 1000 nM	98.4
BT-549 [20], 10000 nM	103
CAL-51 [5], 10 nM	94.3
CAL-51 [16], 3 nM	101
CAL-51 [16], 30 nM	98.6
CAL-51 [16], 100 nM	97.5
CAL-85-1, 10 nM	99.1
CAL-120, 100 nM	84.8
CAL-148 [8], 10 nM	95.6
CAL-148 [19], 3 nM	86
CAL-148 [19], 30 nM	89.8
CAL-148 [19], 100 nM	95.6
DU-4475 [1], 10 nM	95.4
DU-4475 [13], 3 nM	85.7
DU-4475 [13], 30 nM	90.3
DU-4475 [13], 100 nM	87.4
HCC1143 [10], 100 nM	84
HCC1143 [21], 10 nM	77.6
HCC1143 [21], 1000 nM	82.8
HCC1143 [21], 10000 nM	82.9
HCC1599 [6], 100 nM	118
HCC1599 [17], 10 nM	96.1
HCC1599 [17], 1000 nM	104
HCC1599 [17], 10000 nM	97.4
HCC1937 [2], 100 nM	106
HDQ-P1, 10 nM	113
Hs578T [7], 100 nM	101
Hs578T [18], 10 nM	105
Hs578T [18], 1000 nM	117
Hs578T [18], 10000 nM	100
MDA-MB-231 [3], 100 nM	88.3
MDA-MB-231 [14], 10 nM	102
MDA-MB-231 [14], 1000 nM	97.7
MDA-MB-231 [14], 10000 nM	104
MDA-MB-436, 100 nM	97.9
MDA-MB-453, 10 nM	98.7
MDA-MB-468 [4], 100 nM	95.8
MDA-MB-468 [15], 10 nM	104
MDA-MB-468 [15], 1000 nM	104
MDA-MB-468 [15], 10000 nM	90.1
MFM-223, 100 nM	83.2
SK-BR-3, 100 nM	72.8

Conditions	drug sensitivity score
HCC1937 [11]	2.28
Hs578T [12]	0

COC1=CC(c2cc3ccccc3[nH]2)=N/C1=C\c1[nH]c(C)cc1C [Obatoclax]
Conditions	normalised viability [%]
BT-474, 100 nM	70.7
BT-549 [9], 100 nM	62.9
BT-549 [20], 10 nM	78.7
BT-549 [20], 1000 nM	30.3
BT-549 [20], 10000 nM	17.7
CAL-51 [5], 10 nM	109
CAL-51 [16], 3 nM	107
CAL-51 [16], 30 nM	101
CAL-51 [16], 100 nM	101
CAL-85-1, 10 nM	89.4
CAL-120, 100 nM	25.9
CAL-148 [8], 10 nM	87.7
CAL-148 [19], 3 nM	84.7
CAL-148 [19], 30 nM	87.9
CAL-148 [19], 100 nM	87.2
DU-4475 [1], 10 nM	87.7
DU-4475 [13], 3 nM	86.3
DU-4475 [13], 30 nM	73.7
DU-4475 [13], 100 nM	88.2
HCC1143 [10], 100 nM	78
HCC1143 [21], 10 nM	69
HCC1143 [21], 1000 nM	47.1
HCC1143 [21], 10000 nM	33.1
HCC1599 [6], 100 nM	93.4
HCC1599 [17], 10 nM	95.4
HCC1599 [17], 1000 nM	64
HCC1599 [17], 10000 nM	44.9
HCC1937 [2], 100 nM	45.9
HDQ-P1, 10 nM	90.4
Hs578T [7], 100 nM	73.4
Hs578T [18], 10 nM	96.7
Hs578T [18], 1000 nM	27.1
Hs578T [18], 10000 nM	22.1
MDA-MB-231 [3], 100 nM	47.7
MDA-MB-231 [14], 10 nM	77
MDA-MB-231 [14], 1000 nM	11.4
MDA-MB-231 [14], 10000 nM	3.22
MDA-MB-436, 100 nM	58.7
MDA-MB-453, 10 nM	80.6
MDA-MB-468 [4], 100 nM	69
MDA-MB-468 [15], 10 nM	85
MDA-MB-468 [15], 1000 nM	29.5
MDA-MB-468 [15], 10000 nM	31.7
MFM-223, 100 nM	71.7
SK-BR-3, 100 nM	43.3

Conditions	drug sensitivity score
HCC1937 [11]	0
Hs578T [12]	0

CC(=O)O[C@H]1C(=O)[C@@]2(C)[C@H]([C@H](OC(=O)c3ccccc3)[C@]3(O)C[C@H](OC(=O)[C@H](O)[C@@H](NC(=O)c4ccccc4)c4ccccc4)C(C)=C1C3(C)C)[C@]1(OC(C)=O)CO[C@@H]1C[C@@H]2O [Paclitaxel]
Conditions	normalised viability [%]
BT-474, 10 nM	54.3
BT-549 [9], 10 nM	31.9
BT-549 [20], 1 nM	83.7
BT-549 [20], 100 nM	21.1
BT-549 [20], 1000 nM	20.4
CAL-51 [5], 1 nM	91.8
CAL-51 [16], 0.3 nM	95.1
CAL-51 [16], 3 nM	82.9
CAL-51 [16], 10 nM	57.9
CAL-85-1, 1 nM	103
CAL-120, 10 nM	36.9
CAL-148 [8], 1 nM	103
CAL-148 [19], 0.3 nM	106
CAL-148 [19], 3 nM	72.6
CAL-148 [19], 10 nM	51.2
DU-4475 [1], 1 nM	97.6
DU-4475 [13], 0.3 nM	108
DU-4475 [13], 3 nM	95.5
DU-4475 [13], 10 nM	64.8
HCC1143 [10], 10 nM	54.6
HCC1143 [21], 1 nM	104
HCC1143 [21], 100 nM	34.5
HCC1143 [21], 1000 nM	32.5
HCC1599 [6], 10 nM	104
HCC1599 [17], 1 nM	113
HCC1599 [17], 100 nM	86.7
HCC1599 [17], 1000 nM	69.6
HCC1937 [2], 10 nM	36.4
HDQ-P1, 1 nM	60.8
Hs578T [7], 10 nM	26
Hs578T [18], 1 nM	110
Hs578T [18], 100 nM	16.4
Hs578T [18], 1000 nM	11.1
MDA-MB-231 [3], 10 nM	35.7
MDA-MB-231 [14], 1 nM	79.2
MDA-MB-231 [14], 100 nM	19.9
MDA-MB-231 [14], 1000 nM	22.1
MDA-MB-436, 10 nM	52.2
MDA-MB-453, 1 nM	107
MDA-MB-468 [4], 10 nM	52.1
MDA-MB-468 [15], 1 nM	93.5
MDA-MB-468 [15], 100 nM	47.2
MDA-MB-468 [15], 1000 nM	49.4
MFM-223, 10 nM	55.8
SK-BR-3, 10 nM	25.9

Conditions	drug sensitivity score
HCC1937 [11]	0
Hs578T [12]	20.3

CC(C)(C)c1cc(NC(=O)Nc2ccc(-c3cn4c(n3)sc3cc(OCCN5CCOCC5)ccc34)cc2)no1 [Quizartinib]
Conditions	normalised viability [%]
BT-474, 10 nM	94.6
BT-549 [9], 10 nM	101
BT-549 [20], 1 nM	89.4
BT-549 [20], 100 nM	95.1
BT-549 [20], 1000 nM	44
CAL-51 [5], 1 nM	107
CAL-51 [16], 0.3 nM	115
CAL-51 [16], 3 nM	106
CAL-51 [16], 10 nM	110
CAL-85-1, 1 nM	101
CAL-120, 10 nM	94.4
CAL-148 [8], 1 nM	100
CAL-148 [19], 0.3 nM	98.1
CAL-148 [19], 3 nM	102
CAL-148 [19], 10 nM	96.2
DU-4475 [1], 1 nM	109
DU-4475 [13], 0.3 nM	95.8
DU-4475 [13], 3 nM	98.6
DU-4475 [13], 10 nM	93.3
HCC1143 [10], 10 nM	95.2
HCC1143 [21], 1 nM	94.3
HCC1143 [21], 100 nM	95.8
HCC1143 [21], 1000 nM	94.9
HCC1599 [6], 10 nM	116
HCC1599 [17], 1 nM	119
HCC1599 [17], 100 nM	105
HCC1599 [17], 1000 nM	63.6
HCC1937 [2], 10 nM	81.7
HDQ-P1, 1 nM	91.8
Hs578T [7], 10 nM	69.5
Hs578T [18], 1 nM	67.6
Hs578T [18], 100 nM	119
Hs578T [18], 1000 nM	93.2
MDA-MB-231 [3], 10 nM	91.3
MDA-MB-231 [14], 1 nM	104
MDA-MB-231 [14], 100 nM	118
MDA-MB-231 [14], 1000 nM	89.7
MDA-MB-436, 10 nM	110
MDA-MB-453, 1 nM	99
MDA-MB-468 [4], 10 nM	104
MDA-MB-468 [15], 1 nM	108
MDA-MB-468 [15], 100 nM	108
MDA-MB-468 [15], 1000 nM	86.1
MFM-223, 10 nM	86
SK-BR-3, 10 nM	91

Conditions	drug sensitivity score
HCC1937 [11]	0
Hs578T [12]	3.83

From the supplement of paper PMC4862054
